For 24 molecules, melting point results are on record in patent publication US7109225B2, “Substituted oxazole derivatives” (Hofmann-la Roche Inc., priority 2002, dated 2006).

Turning to `CCOC(Cc1ccc(OCCCc2nc(C(C)(C)C)oc2CC)c2ccsc12)C(=O)O` (racemic) [Example 53, [rac]-3-{4-[3-(2-tert-Butyl-5-ethyl-oxazol-4-yl)-propoxy]-benzo[b]thiophen-7-yl}-2-ethoxy-propionic acid], the melting point lay within 94 to 95 °C. For the molecule `CCOC(Cc1ccc(OCCCc2nc(C(C)(C)C)oc2C)c2ccsc12)C(=O)O` (racemic) [Example 54, [rac]-3-{4-[3-(2-tert-Butyl-5-methyl-oxazol-4-yl)-propoxy]-benzo[b]thiophen-7-yl}-2-ethoxy-propionic acid], the melting point fell in the range of 125 to 126 °C. In turn, `Cc1oc(C(C)(C)C)nc1CCCOc1ccc(CC(OC(C)C)C(=O)O)c2ccccc12` (racemic) [Example 55, [rac]-3-{4-[3-(2-tert-Butyl-5-methyl-oxazol-4-yl)-propoxy]-naphthalen-1-yl}-2-isopropoxy-propionic acid] yielded a melting point of 118 to 119 °C. As for `CCOC(Cc1ccc(OCCCc2nc(C(C)(C)C)oc2C)c2ccccc12)C(=O)O` (racemic) [Example 56, [rac]-3-{4-[3-(2-tert-Butyl-5-methyl-oxazol-4-yl)-propoxy]-naphthalen-1-yl}-2-ethoxy-propionic acid], the melting point fell in the range of 138 to 140 °C. With `CCCOC(Cc1ccc(OCCCc2nc(C(C)(C)C)oc2C)c2ccccc12)C(=O)O` (racemic) [Example 57, [rac]-3-{4-[3-(2-tert-Butyl-5-methyl-oxazol-4-yl)-propoxy]-naphthalen-1-yl}-2-propoxy-propionic acid], the melting point is 140 to 141 °C.

The molecule `COC(Cc1ccc(OCCCc2nc(C(C)(C)C)oc2C)c2ccsc12)C(=O)O` (racemic) [Example 58, [rac]-3-{4-[3-(2-tert-Butyl-5-methyl-oxazol-4-yl)-propoxy]-benzo[b]thiophen-7-yl}-2-methoxy-propionic acid] displayed a melting point of 110 to 113 °C. `Cc1oc(C(C)C)nc1CCCOc1ccc(CC(OC(C)C)C(=O)O)c2sccc12` (racemic) [Example 62, [rac]-2-Isopropoxy-3-{4-[3-(2-isopropyl-5-methyl-oxazol-4-yl)-propoxy]-benzo[b]thiophen-7-yl}-propionic acid] returned a melting point of 125 to 126 °C. In turn, `CCOC(Cc1ccc(OCCCc2nc(CC)oc2C)c2ccccc12)C(=O)O` (racemic) [Example 65, [rac]-2-Ethoxy-3-{4-[3-(2-ethyl-5-methyl-oxazol-4-yl)-propoxy]-naphthalen-1-yl}-propionic acid] gave a melting point of 113 to 117 °C. In the case of `CCOC(Cc1ccc(OCCc2nc(CC)oc2C)c2ccsc12)C(=O)O` (racemic) [Example 66, [rac]-2-Ethoxy-3-{4-[2-(2-ethyl-5-methyl-oxazol-4-yl)-ethoxy]-benzo[b]thiophen-7-yl}-propionic acid], the melting point was 84 to 85 °C.

The molecule `CCOC(Cc1ccc(OCCCc2nc(C(CC)CC)oc2C)c2ccsc12)C(=O)O` (racemic) [Example 67, [rac]-2-Ethoxy-3-(4-{3-[2-(1-ethyl-propyl)-5-methyl-oxazol-4-yl]-propoxy}-benzo[b]thiophen-7-yl)-propionic acid] yielded a melting point of 54 to 56 °C. The figure for `CCOC(Cc1ccc(OCCc2nc(C(CC)CC)oc2C)c2ccsc12)C(=O)O` (racemic) [Example 68, [rac]-2-Ethoxy-3-(4-{2-[2-(1-ethyl-propyl)-5-methyl-oxazol-4-yl]-ethoxy}-benzo[b]thiophen-7-yl)-propionic acid] is 120 to 121 °C; for `CCO[C@@H](Cc1ccc(OCCc2nc(C(C)(C)C)oc2C)c2ccsc12)C(=O)O` [Example 6, (S)-3-{4-[2-(2-tert-Butyl-5-methyl-oxazol-4-yl)-ethoxy]-benzo[b]thiophen-7-yl}-2-ethoxy-propionic acid] it is 155 to 156 °C; for `C=CCCO[C@@H](Cc1ccc(OCCc2nc(C(C)(C)C)oc2C)c2ccsc12)C(=O)O` [Example 7, (S)-2-But-3-enyloxy-3-{4-[2-(2-tert-butyl-5-methyl-oxazol-4-yl)-ethoxy]-benzo[b]thiophen-7-yl}-propionic acid] it is 70 to 71 °C. `CCOC(Cc1ccc(OCCc2nc(C(C)(C)C)oc2C)c2ccsc12)C(=O)O` (stereo not drawn) [Example 9, 3-{4-[2-(2-tert-Butyl-5-methyl-oxazol-4-yl)-ethoxy]-benzo[b]thiophen-7-yl}-2-ethoxy-propionic acid]: the melting point lay in the range of 152 to 153 °C.

On to `COC(Cc1ccc(OCCc2nc(C(C)(C)C)oc2C)c2ccsc12)C(=O)O` (stereo not drawn) [Example 10, 3-{4-[2-(2-tert-Butyl-5-methyl-oxazol-4-yl)-ethoxy]-benzo[b]thiophen-7-yl}-2-methoxy-propionic acid], for which the melting point lay within 163 to 165 °C. Consider `COC(Cc1ccc(OCCc2nc(C(C)(C)C)oc2C)c2ccccc12)C(=O)O` (stereo not drawn) [Example 13, 3-{4-[2-(2-tert-Butyl-5-methyl-oxazol-4-yl)-ethoxy]-naphthalen-1-yl}-2-methoxy-propionic acid], for which the melting point lay in the range of 141 to 143 °C. Molecule `CCCOC(Cc1ccc(OCCc2nc(C(C)(C)C)oc2C)c2ccccc12)C(=O)O` (stereo not drawn) [Example 14, 3-{4-[2-(2-tert-Butyl-5-methyl-oxazol-4-yl)-ethoxy]-naphthalen-1-yl}-2-propoxy-propionic acid] showed a melting point of 135 to 137 °C. `COC(Cc1cc(C)c(OCCc2nc(C(C)(C)C)oc2C)c(C)c1)C(=O)O` (stereo not drawn) [Example 15, 3-{4-[2-(2-tert-Butyl-5-methyl-oxazol-4-yl)-ethoxy]-3,5-dimethyl-phenyl}-2-methoxy-propionic acid] showed a melting point of 78 to 80 °C. Regarding `CCOC(Cc1cc(C)c(OCCc2nc(C(C)(C)C)oc2C)c(C)c1)C(=O)O` (stereo not drawn) [Example 16, 3-{4-[2-(2-tert-Butyl-5-methyl-oxazol-4-yl)-ethoxy]-3,5-dimethyl-phenyl}-2-ethoxy-propionic acid], the melting point was in the range of 104 to 106 °C. In the case of `CCOC(Cc1ccc(OCc2nc(C(C)(C)C)oc2C)c2ccsc12)C(=O)O` (stereo not drawn) [Example 19, 3-[4-(2-tert-Butyl-5-methyl-oxazol-4-ylmethoxy)-benzo[b]thiophen-7-yl]-2-ethoxy-propionic acid], the melting point was in the range of 179 to 180 °C. As for `CCOC(Cc1ccc(OCc2nc(C(C)(C)C)oc2C)c(C)c1)C(=O)O` (stereo not drawn) [Example 21, 3-[4-(2-tert-Butyl-5-methyl-oxazol-4-ylmethoxy)-3-methyl-phenyl]-2-ethoxy-propionic acid], the figure is 95 to 97 °C; as for `CCOC(Cc1ccc(OCc2nc(C(C)(C)C)oc2C)c2ccccc12)C(=O)O` (stereo not drawn) [Example 22, 3-[4-(2-tert-Butyl-5-methyl-oxazol-4-ylmethoxy)-naphthalen-1-yl]-2-ethoxy-propionic acid], 185 to 186 °C. `Cc1oc(C(C)(C)C)nc1COc1ccc(CC(OC(C)C)C(=O)O)c2sccc12` (stereo not drawn) [Example 23, 3-[4-(2-tert-Butyl-5-methyl-oxazol-4-ylmethoxy)-benzo[b]thiophen-7-yl]-2-isopropoxy-propionic acid] displayed a melting point of 166 to 167 °C.

With `CCCOC(Cc1ccc(OCc2nc(C(C)(C)C)oc2C)c2ccccc12)C(=O)O` (stereo not drawn) [Example 24, 3-[4-(2-tert-Butyl-5-methyl-oxazol-4-ylmethoxy)-naphthalen-1-yl]-2-propoxy-propionic acid], the melting point was in the range of 169 to 170 °C.

What is called melting point is the temperature of the solid-liquid transition.
